Experimental data from publication PMC6882824, “Engineering of chimeric peptides as antagonists for the G protein-coupled receptor, RXFP4” (Scientific Reports, 2019).
Like-named read-outs stand apart in the source and are kept apart here. Bridge positions count the residues as written; N and C are the ends. Peptide text beside a SMILES is read from it. I, II: the chains in the order shown.

Assays:
RXFP3 [1] = molecular target: T1, RXFP3 (Homo sapiens, UniProt Q9NSD7); assay: cAMP antagonist assay against 10 nM analogue 2 in CHO-K1-RXFP3 cells; format: cell-based; conditions: SEM; read-out: RXFP3 Emax (antagonist efficacy)
T1 construct: expressed in transfected cells; host or cells: CHO-K1 (ATCC), stably transfected
T1 sequence (Q9NSD7 1-469): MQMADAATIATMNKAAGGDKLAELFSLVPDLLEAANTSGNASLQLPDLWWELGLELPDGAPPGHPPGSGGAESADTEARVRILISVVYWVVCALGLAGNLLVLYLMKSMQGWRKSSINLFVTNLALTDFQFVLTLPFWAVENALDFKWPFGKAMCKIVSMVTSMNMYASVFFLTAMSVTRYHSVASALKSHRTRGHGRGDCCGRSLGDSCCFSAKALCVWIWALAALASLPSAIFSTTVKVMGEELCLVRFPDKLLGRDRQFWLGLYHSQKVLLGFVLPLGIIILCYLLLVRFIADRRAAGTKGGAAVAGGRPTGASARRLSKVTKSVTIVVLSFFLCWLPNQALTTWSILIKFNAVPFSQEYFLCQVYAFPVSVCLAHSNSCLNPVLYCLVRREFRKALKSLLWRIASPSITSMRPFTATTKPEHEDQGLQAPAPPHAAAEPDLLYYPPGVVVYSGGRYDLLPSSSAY
Procedure: (§1) The peptides were tested for their ability to inhibit forskolin induced cAMP activity in CHO-K1-RXFP3 or CHO-K1-RXFP4 cells transfected with a pCRE (cAMP Response Element) β-galactosidase reporter plasmid as previously described[9],[34]. For agonist assays cells were stimulated with forskolin (5 µM for RXFP3, 1 µM for RXFP4) plus or minus increasing concentrations of each peptide for 6 hours. For antagonist assays cells were stimulated with forskolin as in agonist assays plus increasing concentrations of each peptide for 10 minutes followed by stimulation with agonist at an ~EC80 concentration for a further 6 hours (10 nM Analogue 2 for RXFP3 and 16.6 nM Analogue 13 for RXFP4). Each peptide was tested in triplicate and each experiment was performed independently at least three times. Agonist data was expressed as the % Forskolin activity whereby 100% was defined as Forskolin alone and 0% as maximum agonist stimulation (1 µM Analogue 2 for RXFP3 and 1 µM Analogue 13 for RXFP4). […] Data were analysed and plotted using GraphPad PRISM 8 and are expressed as the mean ± SEM of the pooled data. Statistical analysis was conducted using one-way ANOVA with Uncorrected Fisher’s LSD post-hoc analysis in GraphPad Prism version 8.

RXFP4 [2] = molecular target: T2, RXFP4 (Homo sapiens, UniProt Q8TDU9); assay: cAMP agonist assay (inhibition of forskolin-induced cAMP, pCRE β-galactosidase reporter) in CHO-K1-RXFP4 cells; format: cell-based; set-up: expressed in transfected cells; host or cells: CHO-K1 (ATCC), stably transfected; conditions: for RXFP4 Activity pEC50: CHO-K1-RXFP4 cells, inhibition of 1 µM forskolin-induced cAMP, 6 hours, mean ± SEM, n in cell
Procedure: as §1

RXFP4 [3] = molecular target: T2, RXFP4; assay: cAMP antagonist assay against 16.6 nM analogue 13 in CHO-K1-RXFP4 cells; format: cell-based; set-up: expressed in transfected cells; host or cells: CHO-K1 (ATCC), stably transfected; conditions: SEM; read-out: RXFP4 Emax (antagonist efficacy)
Procedure: as §1

RXFP3 [4] = molecular target: T1, RXFP3; assay: Competition binding in CHO-K1-RXFP3 cells (Eu-H3B1-22R); conditions: CHO-K1 cells stably transfected with RXFP3, competition with 5 nM Eu-H3B1-22R
Procedure: (§2) Chinese hamster ovary CHO-K1 cells (sourced from American Type Culture Collection (ATCC), Maryland, USA) stably transfected with RXFP3[33] or RXFP4[9] were plated out onto precoated poly-L-lysine 96-well view plates at a density of 50 000 cells per well. Medium was aspirated off and the cells were washed with phosphate-buffered saline (PBS) before competition binding assays were performed with 5 nM Eu-H3B1–22R[34] (RXFP3 ligand) or 5 nM Eu-DTPA-mINSL5[9] (RXFP4 ligand) as previously described. Competition binding curves were performed in triplicate and each experiment was performed independently at least three times. Fluorescent measurements were carried out on a BMG POLARstar plate reader (BMG Labtech, Melbourne, Australia. Pooled data are presented as mean ± S.E of specific binding and are fitted using one-site binding curve in GraphPad Prism version 8 (GraphPad Inc., San Diego, USA). Statistical analyses were conducted using one-way analysis of variance with uncorrected Fisher’s least significant difference (LSD) post-hoc analysis in GraphPad Prism version 8.

RXFP3 [5] = molecular target: T1, RXFP3; assay: cAMP agonist assay (inhibition of forskolin-induced cAMP, pCRE β-galactosidase reporter) in CHO-K1-RXFP3 cells; format: cell-based; conditions: SEM; read-out: RXFP3 Activity pEC50 (converted)
Procedure: as §1

RXFP4 [6] = molecular target: T2, RXFP4; assay: Competition binding in CHO-K1-RXFP4 cells (Eu-DTPA-mINSL5); set-up: expressed in transfected cells; host or cells: CHO-K1 (ATCC), stably transfected; conditions: CHO-K1 cells stably transfected with RXFP4, competition with 5 nM Eu-DTPA-mINSL5
Procedure: as §2

T2 sequence (Q8TDU9 whole entry): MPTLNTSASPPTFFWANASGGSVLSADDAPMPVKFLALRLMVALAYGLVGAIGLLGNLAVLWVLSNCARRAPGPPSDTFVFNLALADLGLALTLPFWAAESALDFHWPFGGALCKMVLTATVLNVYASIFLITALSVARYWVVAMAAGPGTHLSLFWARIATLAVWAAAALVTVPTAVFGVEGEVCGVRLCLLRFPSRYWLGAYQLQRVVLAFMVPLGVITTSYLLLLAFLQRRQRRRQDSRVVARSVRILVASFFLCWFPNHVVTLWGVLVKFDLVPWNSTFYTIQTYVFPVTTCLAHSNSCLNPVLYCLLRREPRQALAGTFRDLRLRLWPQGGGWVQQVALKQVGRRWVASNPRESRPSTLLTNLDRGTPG

## CC[C@H](C)[C@@H]1NC(=O)[C@H](Cc2ccccc2)NC(=O)[C@H]([C@@H](C)CC)NC(=O)[C@H](C(C)C)NC(=O)[C@H]([C@@H](C)O)NC(=O)[C@H](CCCNC(=N)N)NC(=O)[C@H]([C@@H](C)CC)NC(=O)[C@H](Cc2ccccc2)NC(=O)[C@H](CCC(=O)O)NC(=O)[C@H](CC(C)C)NC(=O)CNC(=O)[C@@H](NC(=O)[C@H](CC(C)C)NC(=O)[C@H](CCCNC(=N)N)NC(=O)[C@@H](NC(=O)CNC(=O)[C@H](CCC(=O)O)NC(=O)[C@H](CCCCN)NC(=O)[C@H](C)NC(=O)[C@H](C)NC(=O)[C@@H](N)CCCNC(=N)N)C(C)C)CSSC[C@H](N)C(=O)N[C@@H]([C@@H](C)O)C(=O)N[C@@H](CC(=O)O)C(=O)NCC(=O)N[C@@H](C)C(=O)N[C@@H](CO)C(=O)N[C@@H](CCSC)C(=O)N[C@@H](CCCCN)C(=O)N[C@@H](CC(=O)O)C(=O)N[C@@H](CC(C)C)C(=O)N[C@@H](CO)C(=O)N[C@@H](C)C(=O)N[C@@H](CC(C)C)C(=O)N[C@H](C(=O)O)CSSC[C@@H](C(=O)N[C@@H](CCCNC(=N)N)C(=O)O)NC1=O [Analogue 20] (I: H-RAAKEGVRLCGLEFIRTVIFICR-OH / II: H-CTDGASMKDLSALC-OH; disulfide I:10-II:1, I:22-II:14; N-terminus assumed)
RXFP3 [1]
  Emax: 19.9 ± 2.3%
RXFP4 [2]
  RXFP4 Activity pEC50: Weak partial agonist (4)
RXFP4 [3]
  Emax: 8.1 ± 9.5%

## CC[C@H](C)[C@@H]1NC(=O)[C@H](Cc2ccccc2)NC(=O)[C@H](CCC(=O)O)NC(=O)[C@H](CCCNC(=N)N)NC(=O)CNC(=O)[C@@H](NC(=O)[C@H](CC(C)C)NC(=O)[C@H](CCCNC(=N)N)NC(=O)[C@@H](NC(=O)CNC(=O)[C@H](Cc2ccc(O)cc2)NC(=O)[C@@H]2CCCN2C(=O)[C@H](C)NC(=O)[C@H](C)NC(=O)[C@@H](N)CCCNC(=N)N)C(C)C)CSSC[C@H](N)C(=O)N[C@@H]([C@@H](C)O)C(=O)N[C@@H](CC(=O)O)C(=O)NCC(=O)N[C@@H](C)C(=O)N[C@@H](CO)C(=O)N[C@@H](CCSC)C(=O)N[C@@H](CCCCN)C(=O)N[C@@H](CC(=O)O)C(=O)N[C@@H](CC(C)C)C(=O)N[C@@H](CO)C(=O)N[C@@H](C)C(=O)N[C@@H](CC(C)C)C(=O)N[C@H](C(=O)O)CSSC[C@@H](C(=O)N[C@@H](CCCNC(=N)N)C(=O)O)NC(=O)[C@H]([C@@H](C)CC)NC(=O)[C@H](Cc2ccccc2)NC(=O)[C@H]([C@@H](C)CC)NC(=O)[C@H](C(C)C)NC(=O)[C@H](C)NC(=O)[C@H](CCCNC(=N)N)NC1=O [Analogue 16] (I: H-RAAPYGVRLCGREFIRAVIFICR-OH / II: H-CTDGASMKDLSALC-OH; disulfide I:10-II:1, I:22-II:14; N-terminus assumed)
RXFP3 [1]
  Emax: 55.8 ± 3.4%
RXFP4 [2]
  RXFP4 Activity pEC50: Weak partial agonist (4)
RXFP4 [3]
  Emax: 2.1 ± 4.7%

## CC[C@H](C)[C@@H]1NC(=O)[C@H](Cc2ccccc2)NC(=O)[C@H](CCC(=O)O)NC(=O)[C@H](CCCNC(=N)N)NC(=O)CNC(=O)[C@@H](NC(=O)[C@H](CC(C)C)NC(=O)[C@H](CCCNC(=N)N)NC(=O)[C@@H](NC(=O)CNC(=O)[C@H](Cc2ccc(O)cc2)NC(=O)[C@@H]2CCCN2C(=O)[C@H](C)NC(=O)[C@H](C)NC(=O)[C@@H](N)CCCNC(=N)N)C(C)C)CSSC[C@@H]2NC(=O)[C@@H](NC(=O)[C@H](CO)NC(=O)[C@H](CO)NC(=O)[C@H](CO)NC(=O)[C@H](CC(C)C)NC(=O)CNC(=O)[C@H](C)NC(=O)[C@H](CC(C)C)NC(=O)[C@@H](NC(=O)[C@@H](N)CC(=O)O)C(C)C)CSSC[C@H](NC(=O)CNC(=O)[C@H](Cc3c[nH]c4ccccc34)NC(=O)[C@H](CCCCN)NC2=O)C(=O)N[C@@H](CO)C(=O)N[C@@H](CCCCN)C(=O)N[C@@H](CO)C(=O)N[C@@H](CCC(=O)O)C(=O)N[C@@H]([C@@H](C)CC)C(=O)N[C@@H](CO)C(=O)N[C@@H](CO)C(=O)N[C@@H](CC(C)C)C(=O)N[C@H](C(=O)O)CSSC[C@@H](C(=O)NCC(=O)NCC(=O)N[C@@H](CO)C(=O)N[C@@H](CCCNC(=N)N)C(=O)N[C@@H](Cc2c[nH]c3ccccc23)C(=O)O)NC(=O)[C@H]([C@@H](C)O)NC(=O)[C@H](Cc2ccccc2)NC(=O)[C@H]([C@@H](C)CC)NC(=O)[C@H](C(C)C)NC(=O)[C@H](C)NC(=O)[C@H](CCCNC(=N)N)NC1=O [Relaxin 3 (R3), reference compound]
RXFP3 [4]; mean ± SEM, n in cell, SEM, read-out: RXFP3 Binding pKi (converted)
  Ki: 22.9 nM
RXFP3 [5]
  EC50: 0.832 nM
RXFP4 [6]; mean ± SEM, n in cell, SEM, read-out: RXFP4 Binding pKi (converted)
  Ki: 2.29 nM

## CC[C@H](C)[C@@H]1NC(=O)[C@H](Cc2ccccc2)NC(=O)[C@H](CCC(=O)O)NC(=O)[C@H](CCCNC(=N)N)NC(=O)CNC(=O)[C@@H](NC(=O)[C@H](CC(C)C)NC(=O)[C@H](CCCNC(=N)N)NC(=O)[C@@H](NC(=O)CNC(=O)[C@H](Cc2ccc(O)cc2)NC(=O)[C@@H]2CCCN2C(=O)[C@H](C)NC(=O)[C@H](C)NC(=O)[C@@H](N)CCCNC(=N)N)C(C)C)CSSC[C@H](N)C(=O)N[C@@H](CCCCN)C(=O)N[C@@H](Cc2c[nH]c3ccccc23)C(=O)NCC(=O)N[C@@H](CO)C(=O)N[C@@H](C)C(=O)N[C@@H](CCCCN)C(=O)N[C@@H](CO)C(=O)N[C@@H](CCC(=O)O)C(=O)N[C@@H]([C@@H](C)CC)C(=O)N[C@@H](CO)C(=O)N[C@@H](CO)C(=O)N[C@@H](CC(C)C)C(=O)N[C@H](C(=O)O)CSSC[C@@H](C(=O)NCC(=O)NCC(=O)N[C@@H](CO)C(=O)N[C@@H](CCCNC(=N)N)C(=O)N[C@@H](Cc2c[nH]c3ccccc23)C(=O)O)NC(=O)[C@H]([C@@H](C)O)NC(=O)[C@H](Cc2ccccc2)NC(=O)[C@H]([C@@H](C)CC)NC(=O)[C@H](C(C)C)NC(=O)[C@H](C)NC(=O)[C@H](CCCNC(=N)N)NC1=O [Analogue 2, reference compound]
RXFP3 [4]; read-out: RXFP3 Binding Ki
  Ki: 19.1 nM
RXFP3 [5]
  EC50: 3.72 nM
RXFP4 [6]; read-out: RXFP4 Binding Ki
  Ki: 79.4 nM
RXFP4 [2]
  EC50: 19.9 nM
